Results: US20250325655A1, “VACCINE ADJUVANT, AND PREPARATION METHOD THEREFOR AND USE THEREOF” (CHENGDU MAXVAX BIOTECHNOLOGY LLC, priority 2021, published 2025)

Legend:
[1] = cancer patients, QS-21 dose 100~200 μg, cited from earlier work
[2] = Toxicology studies of the present product; conditions: poly (I:C) adsorbed onto the mixed liposomes
Source text: In order to maintain stability of physical properties of products, the mixed liposomes containing the cationic liposomes and the neutral liposomes (consisting of […]) were chosen in the present disclosure to adsorb poly (I:C). Poly (I:C) adsorbed by the intramuscular administered mixed liposomes could be passively or actively delivered to antigen presenting cells (APCs), to limit its interaction with non-phagocytic cells, and regulate systemic secretion of cytokines generated thereby.

Compound	erythema and induration at the injection site ([1]; most patients)	dose-limiting toxicity [1]	safety [2]
CCC(C)C(CC(O)CC(=O)O[C@@H]1[C@H](O)[C@H](C)O[C@H](OC(=O)[C@@H]2CC(C)(C)C[C@@H]3C4=CCC5[C@@]6(C)CC[C@H](O[C@@H]7O[C@H](C(=O)O)[C@@H](O)[C@H](O[C@H]8OC[C@@H](O)[C@H](O)[C@H]8O)[C@H]7O[C@@H]7O[C@H](CO)[C@H](O)[C@H](O)[C@H]7O)[C@@](C)(C=O)[C@@H]6CC[C@@]5(C)[C@]4(C)C[C@@H](O)C32)[C@H]1O[C@@H]1O[C@@H](C)[C@H](O[C@H]2OC[C@@H](O)[C@H](O[C@H]3OC[C@](O)(CO)[C@H]3O)[C@H]2O)[C@@H](O)[C@H]1O)OC(=O)CC(O)CC(O[C@@H]1O[C@@H](CO)[C@H](O)[C@H]1O)C(C)CC (stereo partly drawn) [QS-21, Quillaja saponaria saponin 21]	2-10 cm	No dose-limiting toxicity	–
polyinosinic: polycytidylic acid [poly (I:C)]	–	–	can effectively improve its safety
